Patent US12612408B2, “Pyrazolone-fused pyrimidine compound, preparation method for same and applications thereof” (SHANGHAI PHARMACEUTICALS HOLDING CO., LTD., priority 2019, dated 2026)
Like-named read-outs stand apart in the source and are kept apart here.

Experiments:
[1] = Bioavailability test in vivo in mice (pharmacokinetics, iv and intragastric); set-up: species or system ICR mice; details: for Cmax / MRT / Tmax / clearance / half-life / Vd / bioavailability: ICR, mouse, plasma; for bioavailability: po 10 mg/kg vs iv 3 mg/kg, read-out: F (absolute bioavailability)
Procedure: 404.6 μL of DMSO was added to the compound powder of the present disclosure until the compound was completely dissolved, and 50 mg/mL mother liquor was prepared in a clarified state.
The compound of the present disclosure: 24 μL of mother liquor was accurately measured, diluted to 4 mL according to the ratio of 0.9% normal saline:PEG400=8:2, the preparation concentration was 0.3 mg/mL, the solution was in a clarified state, and it was used as intravenous administration solution. In addition, 80 μL mother liquor was accurately measured, and 0.5% CMC-Na was added to 8 mL to grind it into a uniform suspension with a concentration of 0.5 mg/mL, which was used as intragastric administration solution.
(§1) Intravenous group: 24 ICR mice, 20±2 g, were given the intravenous administration solution of the compound of the present disclosure by intravenous injection, with the volume of 10 mL/kg, with the dose of 3 mg/kg, the blood was taken from the fundus venous plexus of mice, 2, 5, 15, 30, 60, 90, 120, 240, 360, 480, 600 and 1440 minutes before and after administration.
as §1, with “Intragastric group:” for “Intravenous group:”, “the intragastric” for “the intravenous”, “by intragastric” for “by intravenous”, “of 20” for “of 10”, “of 10” for “of 3”, “mice,” for “mice, 2,”
Blood sample was centrifuged at 8000 rpm for 5 min, and the plasma was stored in a centrifuge tube at −20° C. for later use.
300 μL of acetonitrile containing internal standard (Propranolol, 25 ng/mL) was added to 50 μL of plasma samples to precipitate protein, vortexed for 10 min, 6000 g, 4° C., centrifuged for 10 min; the supernatant before intravenous injection for 1 hour was taken, diluted 10 times with acetonitrile containing internal standard, the rest supernatant was kept undiluted, centrifuged for 10 min again at 6000 g, 4° C., and the supernatant was taken and then injected into a 96-well plate.
Dose; peak concentration: Cmax; peak time: Tmax; area under the drug-time curve from AUClast 0 to time t; half-life: T1/2; mean retention time: MRT; clearance: Cl; apparent distribution volume: Vz; steady-state distributed volume: Vss; absolute bioavailability: F.
The pharmacokinetic parameters of the compound in mice after intravenous injection or intragastric administration were shown in Table 4 and Table 5 below.

[2] = biological target: T1, WEE1 kinase (Homo sapiens, UniProt P30291); assay: Inhibitory effect of compound on WEE1 kinase in vitro (ELISA); assay type: biochemical; details: ATP concentration of Km
T1 construct: purchased CarnaBiosciences, Inc. 05-177
Procedure: The tested compounds were screened on WEE1 kinase with ATP concentration of Km by ELISA. Compounds were screened on WEE1 kinase to evaluate the kinase inhibitory activity of the tested compounds. In the detection process, the initial concentration of the tested compounds was all selected as 100 nM, and each compound was selected with 6 gradient dilution concentrations, the gradient dilution ratio was 4-fold, and two replicate wells were detected for each concentration, MK1775 was used as the standard control.
WEE1, purchased from CarnaBiosciences, Inc., Item No. 05-177; dimethyl sulfoxide, purchased from Sigma-Aldrich, Item No. D8418; ATP, purchased from Sigma-Aldrich, Item No. A7699; DTT solution, purchased from Sigma-Aldrich, Item No. 43816; protein tyrosine kinase (PTK) substrate (poly-Glu-Tyr), purchased from Sigma-Aldrich, Item No. P4476; P-Tyr (PY99), purchased from Santa Cruz, Item No. sc-7020; Anti-mouse IgG HRP-linked Antibody, purchased from Santa Cruz, Item No. 7076S; TMB liquid Substrate System, purchased from Sigma-Aldrich, Item No. T0440; Costar Stripwell Microplate No Lid 1×8 Flat Bottom, Certified High Binding, purchased from Sigma-Aldrich, Item No. 42592; 96-well compound plate, purchased from Thermo Scientific, Item No. 267245.
• 1. Coating substrate: 1) An appropriate volume of substrate storage solution protein tyrosine kinase (PTK) substrate (poly-Glu-Tyr) was taken, diluted 10 times with PBS, and the concentration was diluted from […]. The mixture was added to a high adsorption 96-well plate at 125 μL per well. The plate was placed in an incubator at 37° C. for overnight coating. 2) After 24 hours, the 96-well plate was taken out, the liquid in the 96-well plate was poured out, cleaned with washing buffer for 3 times, and the incubator at 37° C. was inverted and dried for 2 hours. • 2. Compound preparation and transfer: 1) compound dilution: 10 mM of the test compound storage solution was taken, the compound in 96-well compound plate was diluted with DMSO in multiple steps to obtain the initial concentration of 100× compound as the first concentration, and then DMSO was used for 4-fold gradient dilution, for a total of 6 concentrations; after that, 2 μL of the gradient dilution solution was added to 48 μL of 1× reaction buffer respectively to prepare 4× compound; 2) 4× compounds were transferred: 10 μL of 4× compounds from the 96-well compound plate configured in the previous step were transferred into the dried high adsorption 96-well plate; 10 μL of the following liquids were added to the compound-free control wells and ATP-control wells: 2 μL of DMSO was added to 48 μL of 1× reaction buffer. • 3. Enzyme reaction stage: 1) WEE1 kinase and ATP were prepared into 2× enzyme solution and 4×ATP solution respectively with 1× reaction buffer. In this screening, the final concentration of WEE1 kinase was: 0.15 ng/μL and the final concentration of ATP was: […]; 2) 20 μL of enzyme solution of 2 was added to the high adsorption 96-well plate; 3) 10 μL of 4×ATP solution was added to the high adsorption 96-well plate and 10 μL of 1× reaction buffer was added to the ATP-control group; 4) the plate was placed in HERAEUS Multifuge X1R centrifuge at 2000 rpm for 20 s and then placed at room temperature and reacted for 60 min. • 4. Reaction termination stage: 1) the reaction mixture in the plate was poured out, 200 μL of washing buffer was added to each well, and washed for 5 times; the primary antibody P-Tyr (PY99) (dilution ratio 1:2000) was added, 100 μL per well, at room temperature for 30 min. 2) The primary antibody in the plate was poured out, 200 μL of washing buffer was added to each well, and washed for 5 times; the second antibody Anti-mouse IgG HRP-linked Antibody (dilution ratio 1:2000) was added, 100 μL per well, at room temperature for 30 min.

[3] = iv, 3 mg/kg, iv, 3 mg/kg, read-out: Vss
[4] = iv, 3 mg/kg, iv, 3 mg/kg, read-out: Vz

T1 sequence (P30291 whole entry): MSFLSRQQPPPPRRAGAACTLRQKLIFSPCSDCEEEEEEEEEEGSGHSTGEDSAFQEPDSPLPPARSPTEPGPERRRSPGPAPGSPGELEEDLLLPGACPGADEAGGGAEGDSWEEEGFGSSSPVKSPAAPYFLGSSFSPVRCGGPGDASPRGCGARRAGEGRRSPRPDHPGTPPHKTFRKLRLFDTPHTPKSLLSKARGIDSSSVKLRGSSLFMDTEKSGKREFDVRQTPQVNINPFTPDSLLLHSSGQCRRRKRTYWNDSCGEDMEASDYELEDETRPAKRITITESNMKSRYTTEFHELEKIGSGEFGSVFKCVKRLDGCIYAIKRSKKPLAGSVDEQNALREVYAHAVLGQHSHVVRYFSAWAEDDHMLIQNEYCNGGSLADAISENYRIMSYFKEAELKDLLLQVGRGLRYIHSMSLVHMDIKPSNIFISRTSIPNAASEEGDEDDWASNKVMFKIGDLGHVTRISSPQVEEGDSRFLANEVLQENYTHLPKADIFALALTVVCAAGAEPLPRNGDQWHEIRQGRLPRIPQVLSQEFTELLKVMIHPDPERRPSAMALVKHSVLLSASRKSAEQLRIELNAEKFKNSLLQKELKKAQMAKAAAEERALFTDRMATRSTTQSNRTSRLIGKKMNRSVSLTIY

SMILES: C=CCn1c(=O)c2cnc(Nc3ccc(C4CCC(N5CCC5)CC4)cc3)nc2n1-c1cccc(C(C)(C)O)n1 (centres unmarked) [Compound I-8]
- Cmax ([1]; iv, 3 mg/kg): 644 ± 132 ng/mL
- MRT ([1]; iv, 3 mg/kg): 1.11 ± 0.08 h
- Tmax ([1]; iv, 3 mg/kg): 0.03 h
- clearance ([1]; iv, 3 mg/kg): 155 mL/min/kg
- half-life ([1]; iv, 3 mg/kg): 1.22 ± 0.1 h
- Vd [1, 3]: 10.3 ± 0.86 L/kg
- Vd [1, 4]: 16.3 ± 2.48 L/kg
- bioavailability [1]: 60.3%
- Cmax ([1]; po (intragastric), 10 mg/kg): 58.1 ± 7.09 ng/mL
- MRT ([1]; po (intragastric), 10 mg/kg): 3.47 ± 1.22 h
- Tmax ([1]; po (intragastric), 10 mg/kg): 1.67 ± 0.29 h
- half-life ([1]; po (intragastric), 10 mg/kg): 1.57 ± 0.39 h
- AUClast ([1]; iv, 3 mg/kg): 317.5 ± 34.41 (h) (ng/mL)
- AUClast ([1]; po (intragastric), 10 mg/kg): 637.9 ± 302.3 (h) (ng/mL)
- IC50 [2]: 1.52 nM

SMILES: C=CCn1c(=O)c2cnc(Nc3ccc(C4CCC(N(C)C)CC4)cc3)nc2n1-c1cccc(C(C)(C)O)n1 (single isomer, unassigned) [Compound I-1-1]
- Cmax ([1]; iv, 3 mg/kg): 701 ± 142 ng/mL
- MRT ([1]; iv, 3 mg/kg): 1.75 ± 0.46 h
- Tmax ([1]; iv, 3 mg/kg): 0.03 h
- clearance ([1]; iv, 3 mg/kg): 129 mL/min/kg
- half-life ([1]; iv, 3 mg/kg): 4.31 ± 1.51 h
- Vd [1, 3]: 13.6 ± 3.95 L/kg
- Vd [1, 4]: 48.5 ± 18.4 L/kg
- bioavailability [1]: 42.6%
- Cmax ([1]; po (intragastric), 10 mg/kg): 245 ± 220 ng/mL
- MRT ([1]; po (intragastric), 10 mg/kg): 4.33 ± 9.02 h
- Tmax ([1]; po (intragastric), 10 mg/kg): 2.5 ± 1.32 h
- half-life ([1]; po (intragastric), 10 mg/kg): 3.1 ± 9.02 h
- AUClast ([1]; iv, 3 mg/kg): 372.5 ± 24.38 (h) (ng/mL)
- AUClast ([1]; po (intragastric), 10 mg/kg): 528.6 ± 331.1 (h) (ng/mL)
- IC50 [2]: 1.9 nM

SMILES: C=CCn1c(=O)c2cnc(Nc3ccc(C4CCC(N(C)C)CC4)cc3)nc2n1-c1cccc(C2(O)COC2)n1 (single isomer, unassigned) [Compound I-15-1]
- IC50 [2]: 1.52 nM

SMILES: C=CCn1c(=O)c2cnc(Nc3ccc(C4CCC(N5CCOC5=O)CC4)cc3)nc2n1-c1cccc(C2(O)COC2)n1 (centres unmarked) [Compound I-37]
- IC50 [2]: 1.99 nM

SMILES: C=CCn1c(=O)c2cnc(Nc3ccc(C4CCC(N(C)C)CC4)cc3)nc2n1-c1cccc(C2(O)COC2)n1 (single isomer, unassigned) [Compound I-15-2]
- IC50 [2]: 1.68 nM

SMILES: C=CCn1c(=O)c2cnc(Nc3ccc(C4CCC(C(=O)O)CC4)cc3)nc2n1-c1cccc(C2(O)COC2)n1 (centres unmarked) [Compound I-40]
- IC50 [2]: 4.58 nM

SMILES: C=CCn1c(=O)c2cnc(Nc3ccc(C4CCC(C#N)CC4)cc3)nc2n1-c1cccc(C2(O)COC2)n1 (centres unmarked) [Compound I-38]
- IC50 [2]: 1.68 nM

SMILES: C=CCn1c(=O)c2cnc(Nc3ccc(C4CCC(C(=O)N5CCC5)CC4)cc3)nc2n1-c1cccc(C(C)(C)O)n1 (centres unmarked) [Compound I-7]
- IC50 [2]: 6.53 nM

SMILES: C=CCn1c(=O)c2cnc(Nc3ccc4c(c3)CCC(N(C)C)C4)nc2n1-c1cccc(C(C)(C)O)n1 (centres unmarked) [Control 2, reference compound]
- Cmax ([1]; iv, 3 mg/kg): 646 ± 76.8 ng/mL
- MRT ([1]; iv, 3 mg/kg): 0.86 ± 0.16 h
- Tmax ([1]; iv, 3 mg/kg): 0.03 h
- clearance ([1]; iv, 3 mg/kg): 188 mL/min/kg
- half-life ([1]; iv, 3 mg/kg): 1.37 ± 0.33 h
- Vd [1, 3]: 9.69 ± 0.96 L/kg
- Vd [1, 4]: 22.2 ± 3.29 L/kg
- bioavailability [1]: 9.19%
- Cmax ([1]; po (intragastric), 10 mg/kg): 27.8 ± 4.76 ng/mL
- MRT ([1]; po (intragastric), 10 mg/kg): 3.78 ± 1.56 h
- Tmax ([1]; po (intragastric), 10 mg/kg): 1.67 ± 2.02 h
- half-life ([1]; po (intragastric), 10 mg/kg): 2.51 ± 1.85 h
- AUClast ([1]; iv, 3 mg/kg): 261.52 ± 26.93 (h) (ng/mL)
- AUClast ([1]; po (intragastric), 10 mg/kg): 80.15 ± 9.62 (h) (ng/mL)
- IC50 [2]: 1.98 nM

SMILES: C=CCn1c(=O)c2cnc(Nc3ccc(C4CCC(NC)CC4)cc3)nc2n1-c1cccc(C2(O)COC2)n1 (centres unmarked) [Compound I-33]
- IC50 [2]: 4.22 nM

SMILES: C=CCn1c(=O)c2cnc(Nc3ccc(C4CC(N(C)C)C4)cc3)nc2n1-c1cccc(C(C)(C)O)n1 (centres unmarked) [Compound I-31, 2-allyl-6-((4-(3-(dimethylamino)cyclobutyl)phenyl)amino)-1-(6-(2-hydroxypropan-2-yl)pyridin-2-yl)-1,2-dihydro-3H-pyrazolo[3,4-d]pyrimidin-3-one]
- IC50 [2]: 2.05 nM

SMILES: C=CCn1c(=O)c2cnc(Nc3ccc(C4CCC(N(C)C(=O)C5CC5)CC4)cc3)nc2n1-c1cccc(C2(O)COC2)n1 (centres unmarked) [Compound I-34]
- IC50 [2]: 3.3 nM

SMILES: C=CCn1c(=O)c2cnc(Nc3ccc(C4CCC(N5CCOCC5)CC4)cc3)nc2n1-c1cccc(C(C)(C)O)n1 (centres unmarked) [Compound I-2]
- IC50 [2]: 2.57 nM

SMILES: C=CCn1c(=O)c2cnc(Nc3ccc(C4CCC(N(C)C)CC4)cc3)nc2n1-c1cccc(C(C)(C)O)n1 (single isomer, unassigned) [Compound I-1-2]
- IC50 [2]: 2.08 nM

SMILES: C=CCn1c(=O)c2cnc(Nc3ccc(C4CCC(N5CCC5)CC4)cc3)nc2n1-c1cccc(C2(O)COC2)n1 (single isomer, unassigned) [Compound I-36-2]
- IC50 [2]: 2.92 nM

SMILES: C=CCn1c(=O)c2cnc(Nc3ccc(C4CCC(C(=O)N(C)C)CC4)cc3)nc2n1-c1cccc(C(C)(C)O)n1 (centres unmarked) [Compound I-6]
- IC50 [2]: 6.76 nM

SMILES: C=CCn1c(=O)c2cnc(Nc3ccc(C4CCC(NC(=N)N)CC4)cc3)nc2n1-c1cccc(C(C)(C)O)n1 (centres unmarked) [Compound I-20]
- IC50 [2]: 3.45 nM
